This is an account of results in patent US5686486A, “4-hydroxy-benzopyran-2-ones and 4-hydroxy-cycloalkyl[b]pyran-2-ones useful to treat retroviral infections” (priority 1995, dated 1997).

A word on the Ki: it is a measure of affinity in units of concentration, obtained from inhibition or displacement.

Assay [1] has as its target T1, HIV-1 protease (Human immunodeficiency virus type 1 group M subtype B, UniProt P04585). Put plainly: biochemical. As to conditions: for inhibition at 0.123 µM: read-out: HIV-1 Protease % Inhib, dose 0.123 uM; for inhibition at 0.37 µM: read-out: HIV-1 Protease % Inhib, dose 0.370 uM; for inhibition at 1.1 µM: read-out: HIV-1 Protease % Inhib, dose 1.100 uM; for inhibition at 3.3 µM: read-out: HIV-1 Protease % Inhib, dose 3.300 uM; for inhibition at 10 µM: read-out: HIV-1 Protease % Inhib, dose 10.000 uM; for inhibition at 30 µM: read-out: HIV-1 Protease % Inhib, dose 30.000 uM. A digest of the protocol: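 Biotinylated, FITC-labeled peptide substrate (20 μl of 0.2 μM) incubated with HIV-1 protease (10 μl of 0.1 μM) and compound in 0.1 M sodium acetate pH 5.5, 1.0 M NaCl, 0.05% NP-40, 1 h, room temperature, dark. Streptavidin beads then capture uncleaved substrate; filtered labeled product read by fluorescence, giving percent inhibition.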

For assay [2], the target named is T1, HIV-1 protease. Nature of the assay: biochemical. The conditions noted are these: read-out: HIV-1 FITC KI. A digest of the protocol: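 Ki from two-fold serial inhibitor dilutions (24–48 concentrations) with 40 nM HIV-1 protease stock and 200 μM substrate stock, 90 min at room temperature; stopped with avidin beads. Reference inhibitor run in parallel; Ki by nonlinear least-squares fit.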

“And” between values parts separate entries of the source, which are not always exact repeats. Identical values can stand only once.

For `CC(C)(C)OC(=O)NCCC(=O)Nc1cccc(C(c2c(O)c3c(oc2=O)CCCCCC3)C2CC2)c1` (stereo not shown) [Example 196, Carbamic acid, [3-[[3-[cyclopropyl(5,6,7,8,9,10-hexahydro-4-hydroxy-2-oxo-2H-cycloocta[b]pyran-3-yl)methyl]phenyl]amino]-3-oxopropyl]-, 1,1-dimethylethyl ester], in assay [1], the inhibition at 0.123 µM stood at 68%, the inhibition at 0.37 µM is 81.2%, the inhibition at 1.1 µM was determined as 91.8% and the inhibition at 3.3 µM turned out to be 97.9%. Also, in assay [1], the inhibition at 10 µM turned out to be 105% and the inhibition at 30 µM was 95.8%. The Ki in assay [2] is 0.003 µM.

For the compound `O=C(CCn1ccc2ccccc21)Nc1cccc(C(c2c(O)c3c(oc2=O)CCCCCC3)C2CC2)c1` (stereo not shown) [Example 197, 1H-Indole-1-propanamide, N-[3-[cyclopropyl(5,6,7,8,9,10-hexahydro-4-hydroxy-2-oxo-2H-cycloocta[b]pyran-3-yl)methyl]phenyl]-], in assay [1], the inhibition at 0.123 µM was 34%, the inhibition at 0.37 µM was 65.6%, the inhibition at 1.1 µM was 76.6% and the inhibition at 3.3 µM amounted to 88.7%. Also, in assay [1], the inhibition at 10 µM came out at 91.8% and the inhibition at 30 µM was 89.6%. The inhibitory constant (Ki) in assay [2] was 0.0141 µM.

As for `Cc1ccc(S(=O)(=O)n2cncc2C[C@H](NC(=O)OC(C)(C)C)C(=O)Nc2cccc(C(c3c(O)c4c(oc3=O)CCCCCC4)C3CC3)c2)cc1` (stereo partly drawn) [Example 199, Carbamic acid, [2-[[3-[cyclopropyl(5,6,7,8,9,10-hexahydro-4-hydroxy-2-oxo-2H-cycloocta[b]pyran-3-yl)methyl]phenyl]amino]-1-[[1-(S)-[(4-methylphenyl)sulfonyl]-1H-imidazol-5-yl]methyl]-2-oxoethyl]-, 1,1-dimethylethyl ester], in assay [1], the inhibition at 0.123 µM came out at 56%, the inhibition at 0.37 µM amounted to 86.5%, the inhibition at 1.1 µM was 97.6% and the inhibition at 3.3 µM worked out at 106%. Moreover, in assay [1], the inhibition at 10 µM worked out at 114% and the inhibition at 30 µM turned out to be 107%. The Ki in assay [2] was found to be 0.0104 µM.

In the case of `CC(C)(C)OC(=O)NCC(=O)Nc1cccc(C(c2c(O)c3c(oc2=O)CCCCCC3)C2CC2)c1` (stereo not shown) [Example 200, Carbamic acid, [2-[[3-[cyclopropyl(5,6,7,8,9,10-hexahydro-4-hydroxy-2-oxo-2H-cycloocta[b]pyran-3-yl)methyl]phenyl]amino]-2-oxyethyl]-, 1,1-dimethylethyl ester], in assay [1], the inhibition at 0.123 µM is 64.6%, the inhibition at 0.37 µM was determined as 88.5%, the inhibition at 1.1 µM stood at 90.9% and the inhibition at 3.3 µM amounted to 103%. Besides, in assay [1], the inhibition at 10 µM was found to be 105% and the inhibition at 30 µM stood at 99.1%. Further, the Ki in assay [2] was 0.0029 µM.

Take `O=C(CCN1CCCCC1)Nc1cccc(C(c2c(O)c3c(oc2=O)CCCCCC3)C2CC2)c1` (stereo not shown) [Example 205, 1-Piperidinepropanamide, N-[3-[cyclopropyl(5,6,7,8,9,10-hexahydro4-hydroxy-2-oxo-2H-cycloocta[b]pyran-3-yl)methyl]phenyl]-]: in assay [1], the inhibition at 0.123 µM is 12.6%, the inhibition at 0.37 µM came to 56.4%, the inhibition at 1.1 µM amounted to 76.6% and the inhibition at 3.3 µM is 94.2%. Moreover, in assay [1], the inhibition at 10 µM amounted to 109% and the inhibition at 30 µM worked out at 104%. For the same compound, the Ki in assay [2] came out at 0.0261 µM.

Take `O=C(Cc1ccccc1)Nc1cccc(C(c2c(O)c3c(oc2=O)CCCCCC3)C2CC2)c1` (stereo not shown) [Example 207, N-[3-[Cyclopropyl(5,6,7,8,9,10-hexahydro-4-hydroxy-2-oxo-2H-cycloocta[b]pyran-3-yl)methyl]phenyl]-benzacetamide]: in assay [1], the inhibition at 0.123 µM came out at 14%, the inhibition at 0.37 µM amounted to 44.1%, the inhibition at 1.1 µM was found to be 74% and the inhibition at 3.3 µM is 93.8%. Besides, in assay [1], the inhibition at 10 µM was 83% and the inhibition at 30 µM was determined as 78.7%. Moreover, in assay [2], the Ki was determined as 0.0334 µM.

For the compound `CCCC(=O)Nc1cccc(C(c2c(O)c3c(oc2=O)CCCCCC3)C2CC2)c1` (stereo not shown) [Example 209, N-[3-[Cyclopropyl(5,6,7,8,9,10-hexahydro-4-hydroxy-2-oxo-2H-cycloocta[b]pyran-3-yl)methyl]phenyl]-butanamide], in assay [1], the inhibition at 0.37 µM was 43.2%, the inhibition at 1.1 µM is 80%, the inhibition at 3.3 µM is 96% and the inhibition at 10 µM is 104%. The inhibition at 30 µM in assay [1] came to 100%. Besides, the Ki in assay [2] amounted to 0.0241 µM.

In the case of `O=C(Nc1cccc(C(c2c(O)c3c(oc2=O)CCCCCC3)C2CC2)c1)c1ccc(F)cc1` (stereo not shown) [Example 210, Benzamide, N-[3-[cyclopropyl(5,6,7,8,9,10-hexahydro4-hydroxy-2-oxo-2H-cycloocta[b]pyran-3-yl)methyl]phenyl]-4-fluoro-], in assay [1], the inhibition at 0.123 µM is 19.7%, the inhibition at 0.37 µM worked out at 31.5%, the inhibition at 1.1 µM was 58.1% and the inhibition at 3.3 µM was 77.6%. In addition, in assay [1], the inhibition at 10 µM was found to be 88.8% and the inhibition at 30 µM came out at 97.3%. The inhibition constant Ki in assay [2] was 0.055 µM.

Consider `O=C(Nc1cccc(C(c2c(O)c3c(oc2=O)CCCCCC3)C2CC2)c1)c1ccccc1` (stereo not shown) [Example 211, Benzamide, N-[3-[cyclopropyl(5,6,7,8,9,10-hexahydro-4-hydroxy-2-oxo-2H-cycloocta[b]pyran-3-yl)methyl]phenyl]], for which, in assay [1], the inhibition at 0.37 µM is 37.2%, the inhibition at 1.1 µM came out at 64.5%, the inhibition at 3.3 µM was determined as 89.6% and the inhibition at 10 µM was found to be 101%. For the same compound, the inhibition at 30 µM in assay [1] was 101%. Also, the Ki in assay [2] came out at 0.042 µM.

For `CC(C)(C)OC(=O)N[C@@H](Cc1c[nH]cn1)C(=O)Nc1cccc(C(c2c(O)c3c(oc2=O)CCCCCC3)C2CC2)c1` (stereo partly drawn) [Example 213, Carbamic acid, [2-[[3-[cyclopropyl(5,6,7,8,9,10-hexahydro-4-hydroxy-2-oxo-2H-cycloocta[b]pyran-3-yl)methyl]phenyl]amino]-1-(S)-(1H-imidazol-4-ylmethyl)-2-oxoethyl]-, 1,1-dimethylethyl ester], the “HIV-1 Protease % Inhib” value in assay [1] (dose 0.123 uM) came to 74.4%. In addition, in assay [1], the inhibition at 0.37 µM was found to be 82.2%, the inhibition at 1.1 µM came out at 94.5%, the inhibition at 3.3 µM was found to be 102% and the inhibition at 10 µM is 109%. Also, the inhibition at 30 µM in assay [1] stood at 99.3%. In addition, the Ki in assay [2] came out at 0.0035 µM.

For the compound `CC(C)(C)OC(=O)NCCC(=O)Nc1cccc(C(c2c(O)c3c(oc2=O)CCCCC3)C2CC2)c1` (stereo not shown) [Example 214, Carbamic acid. [3-[[3-[cyclopropyl(2,5,6,7,8,9-hexahydro-4-hydroxy-2-oxocyclohepta[b]pyran-3-yl)methyl]phenyl]amino]-3-oxopropyl]-, 1,1-dimethylethyl ester], in assay [1], the inhibition at 0.123 µM came to 18.7%, the inhibition at 0.37 µM worked out at 54%, the inhibition at 1.1 µM was 74.1% and the inhibition at 3.3 µM is 88.6%. In assay [1], the inhibition at 10 µM turned out to be 95.2% and the inhibition at 30 µM is 96.2%. For the same compound, in assay [2], the Ki came out at 0.0193 µM.

Consider `O=C(CCn1ccc2ccccc21)Nc1cccc(C(c2c(O)c3c(oc2=O)CCCCC3)C2CC2)c1` (stereo not shown) [Example 215, 1H-Indole-1-propanamide, N-[3-[cyclopropyl(2,5,6,7,8,9-hexahydro-4-hydroxy-2-oxocyclohepta[b]pyran-3-yl)methyl]phenyl]-], for which, in assay [1], the inhibition at 0.123 µM came out at 13.5%, the inhibition at 0.37 µM is 43.3%, the inhibition at 1.1 µM is 76.1% and the inhibition at 3.3 µM amounted to 97.9%. For the same compound, in assay [1], the inhibition at 10 µM worked out at 107% and the inhibition at 30 µM was 98.5%. Besides, the Ki in assay [2] was found to be 0.0278 µM.

As to `CCC(c1cccc(NC(=O)CCNC(=O)OC(C)(C)C)c1)c1c(O)c2c(oc1=O)CCCCCC2` (stereo not shown) [Example 219, Carbamic acid, [3-[[3-[1-(5,6,7,8,9,10-hexahydro4-hydroxy-2-oxo-2H-cycloocta[b]pyran-3-yl)propyl]phenyl]amino]-3-oxopropyl]-, 1,1-dimethylethyl ester], in assay [1], the inhibition at 0.123 µM is 52.1%, the inhibition at 0.37 µM stood at 81%, the inhibition at 1.1 µM is 92.5% and the inhibition at 3.3 µM stood at 100%. Besides, in assay [1], the inhibition at 10 µM was 109% and the inhibition at 30 µM amounted to 97.3%. Also, the Ki in assay [2] was 0.0104 µM.

Regarding `CCOC(=O)Nc1cccc(C(c2c(O)c3c(oc2=O)CCCCCC3)C2CC2)c1` (stereo not shown) [Example 226, [3-[Cyclopropyl(5,6,7,8,9,10-hexahydro4-hydroxy-2-oxo-2H-cycloocta[b]pyran-3-yl)methyl]phenyl]-, ethyl ester carbamic acid], in assay [1], the inhibition at 0.123 µM was found to be 14.2%, the inhibition at 0.37 µM was found to be 43.7%, the inhibition at 1.1 µM stood at 74.1% and the inhibition at 3.3 µM came to 87.6%. In assay [1], the inhibition at 10 µM was 101% and the inhibition at 30 µM is 104%. The inhibitory constant (Ki) in assay [2] amounted to 0.0189 µM.

Regarding `O=c1oc2c(c(O)c1[C@H](c1ccccc1)C1CC1)CCCCCC2` [Example 229, (-)-(S)-3-(Cyclopropylphenylmethyl)-5,6,7,8,9,10-hexahydro-4-hydroxy-2H-cyclo[b]pyran-2-one], in assay [1], the inhibition at 0.123 µM was 16.9%, the inhibition at 0.37 µM is 54.3%, the inhibition at 1.1 µM is 88.8% and the inhibition at 3.3 µM stood at 103%. Further, in assay [1], the inhibition at 10 µM was 108% and the inhibition at 30 µM came to 105%. The inhibition constant Ki in assay [2] is 0.0106 µM and 0.0119 µM and 0.0162 µM.
